Earlier results on two compounds are cited in patent US11441198B2 (priority 2016, dated 2022).

Structures are written as SMILES.

Series [1] concerns influenza virus. Conditions: double-blind randomized placebo-controlled trial.
In series [2] the test system is influenza viruses.

In the case of `CC(=O)Oc1ccccc1C(=O)Nc1ncc([N+](=O)[O-])s1` [Nitazoxanide], the symptoms entry in series [1] was “associated with improvement in symptoms”. As for `COc1c(C)c2c(c(O)c1C/C=C(\C)CCC(=O)O)C(=O)OC2` [mycophenolic acid], the “antiviral activity against influenza viruses” value in series [2] is “has antiviral activity”.
